The conditions of series [1]: in vivo; cited from earlier work.
The nature of series [2]: Case/control study, subject characteristics of cases with GM-induced vestibular dysfunction. Format: in vivo, human. The conditions noted are these: attributed to GM therapy. The procedure: Subjects: Subjects were recruited for participation in a case/control study. Cases were recruited from various vestibular dysfunction support groups through advertisements and direct mailings. Cases were included if they could document profound unilateral or bilateral vestibular loss due specifically to GM administration after the age of 18 yr. […] Normal vestibular function was determined with the use of a clinical balance function questionnaire and medical history information. There are no apparent sex or racial differences in susceptibility to GM-induced vestibular dysfunction, so no inclusion limitations were made on those parameters, although the vast majority of recruited subjects were white. Because allele frequencies for many polymorphisms differ by race and only 10 non-white subjects completed the study, all results are presented for the 263 white participants. Children have higher risk for GM-induced ototoxicity, so only individuals >18 yr. and who were >18 yr. at the time of GM therapy were included. All subjects provided written informed consent and all procedures were approved by the University of Maryland Institutional Review Board.
Procedures: Potential subjects completed medical history and balance function questionnaires, and patients specifically provided medical record release authorizations. […]

For series [3] the following is noted: cited from earlier work.
The test system of a further series is vestibular hair cell. The conditions noted are these: by inhibiting NO and ROS production; cited from earlier work.
The conditions of series [4]: provided simultaneously with GM; cited from earlier work.

“Also recorded” adds a separate entry of the source.

Regarding gentamicin [GM], the metabolism result in series [1] was “not metabolized, but simply excreted by the kidney; also recorded: not metabolized by the body”. In addition, in series [2], the “Hearing complications, (%)” value is “(34%)” and the “Renal complications, (%)” value is “(14%)”. Also, in series [3] (GM-treated patients (33), different patients than those with auditory dysfunction), the vestibular dysfunction entry is on record as “three”. Further, the auditory dysfunction entry in series [3] (GM-treated patients, number affected of 33) is on record as “three of 33”.
Regarding `O[C@@H]1CO[C@H]2[C@@H]1OC[C@@H]2O` [isosorbide], the “effect on GM-induced vestibular hair cell death” value in the series on vestibular hair cell is on record as “delay GM-induced vestibular hair cell death”.

B1: BDNF: brain-derived neurotrophic factor, a neurotrophic factor (protein, UniProt P23560 19-247, looked up)
Neurotrophic factor BDNF …: APMKEANIRGQGGLAYPGVRTHGTLESVNGPKAGSRGLTSLADTFEHVIEELLDEDQKVRPNEENNKDADLYTSRVMLSSQVPLEPPLLFLLEEYKNYLDAANMSMRVRRHSDPARRGELSVCDSISEWVTAADKKTAVDMSGGTVTVLEKVPVSKGQLKQYFYETKCNPMGYTKEGCRGIDKRHWNSQCRTTQSYVRALTMDSKKRIGWRFIRIDTSCVCTLTIKRGR
B1: in series [4], the “effect on ototoxic damage” value is on record as “limits ototoxic damage”.
